Patent US20250243242A1, “LEVODOPA TYROSINE POLYMORPHS” (NeuroDerm, Ltd., priority 2022, published 2025)
Values after ≈ are worked out from the molar mass of the structure shown. Non-standard residues stand in square brackets, D forms with d. Residues, ends and D or L forms follow the SMILES beside them. Dopa = N[C@@H](Cc1ccc(O)c(O)c1)C(=O)O

Columns and labels:
Type in all cases: physicochemical
[1] = solid form stability upon storage at ambient conditions
[2] = dynamic vapor sorption (DVS); conditions: for hygroscopicity, weight gained: between 40-80% RH; for hygroscopicity (in words): DVS, 40-80% RH
Protocol: Dynamic vapour sorption (DVS) was performed using a Hiden Analytical Instruments IGAsorp Vapour Sorption Balance. Approximately 30 mg of sample was placed into a wire-mesh vapour sorption balance pan, loaded into the IGAsorp vapour sorption balance and held at 25° C.±0.1° C. The sample was subjected to a step profile in 10% increments from 40-90% RH, followed by desorption from 90-0% RH and a second sorption cycle form 0-40% RH. The equilibrium criterion was set to 99.0% step completion within a minimum of 60 minutes and a maximum of 5 hours for each increment. The weight change during the sorption cycle was monitored, allowing for the hygroscopic nature of the sample to be determined. The data collection interval was in seconds.

[3] = aqueous solubility at various pH
[4] = physical stability at 75% RH and 40° C.
[5] = between about 40 to about 80% RH at 25° C.

With `N[C@@H](Cc1ccc(O)c(O)c1)C(=O)N[C@@H](Cc1ccc(O)cc1)C(=O)O` [Form C, ((S)-2-amino-3-(3,4-dihydroxyphenyl)propanoyl)-L-tyrosine] (H-[Dopa]-Tyr-OH) the “form conversion upon storage” value [1] was “converted to Form G”.
With `N[C@@H](Cc1ccc(O)c(O)c1)C(=O)N[C@@H](Cc1ccc(O)cc1)C(=O)O` [Form D, ((S)-2-amino-3-(3,4-dihydroxyphenyl)propanoyl)-L-tyrosine] (H-[Dopa]-Tyr-OH) the “form conversion upon storage” value [1] was “converted to Form N”.
With `N[C@@H](Cc1ccc(O)c(O)c1)C(=O)N[C@@H](Cc1ccc(O)cc1)C(=O)O` [Form E, ((S)-2-amino-3-(3,4-dihydroxyphenyl)propanoyl)-L-tyrosine] (H-[Dopa]-Tyr-OH) the “DVS reversable total mass change” value ([2]; between about 0 to about 90% RH at 25° C.) was “about 8 wt. %” and the “form conversion upon storage” value [1] was “converted to Form B”.
For `N[C@@H](Cc1ccc(O)c(O)c1)C(=O)N[C@@H](Cc1ccc(O)cc1)C(=O)O` [Form G, ((S)-2-amino-3-(3,4-dihydroxyphenyl)propanoyl)-L-tyrosine] (H-[Dopa]-Tyr-OH), the “hygroscopicity, weight gained” value [2] was 2.6 % w/w and the “DVS reversable total mass change” value [2, 5] was “about 2.6 wt. %”.
`N[C@@H](Cc1ccc(O)c(O)c1)C(=O)N[C@@H](Cc1ccc(O)cc1)C(=O)O` [Form N, ((S)-2-amino-3-(3,4-dihydroxyphenyl)propanoyl)-L-tyrosine] (H-[Dopa]-Tyr-OH) showed a solubility ([3]; aqueous medium, pH 3.27, aqueous buffer, pH of about 3.27) of about 2860 µg/mL (≈ 7.94 mM), a solubility ([3]; aqueous medium, pH 3.83, aqueous buffer, pH of about 3.83) of about 1640 µg/mL (≈ 4.55 mM) and a solubility ([3]; aqueous medium, pH 3.92, aqueous buffer, pH of about 3.92) of about 1540 µg/mL (≈ 4.27 mM). For the same compound, the solubility ([3]; aqueous medium, pH 4.68, aqueous buffer, pH of about 4.68) was about 1330 µg/mL (≈ 3.69 mM), the solubility ([3]; aqueous medium, pH 5, aqueous buffer, pH of about 5.00) was about 1290 µg/mL (≈ 3.58 mM) and the solubility ([3]; aqueous medium, pH 6.04, aqueous buffer, pH of about 6.04) was about 1370 µg/mL (≈ 3.8 mM). For the same compound, the solubility ([3]; aqueous solution, pH 1.17, simulated gastric fluid, pH of about 1.17) was about 184000 µg/mL (≈ 512 mM), the solubility ([3]; aqueous solution, pH 2.6, aqueous buffer, pH of about 2.60) was about 9460 µg/mL (≈ 26.3 mM) and the solubility ([3]; aqueous solution, pH 3, aqueous buffer, pH of about 3.00) was about 4060 µg/mL (≈ 11.3 mM). For the same compound, the solubility ([3]; aqueous solution, pH 6.78, aqueous buffer, pH of about 6.78) was about 510 µg/mL (≈ 1.42 mM), the solubility ([3]; aqueous solution, pH 7.56, aqueous buffer, pH of about 7.56) was about 18900 µg/mL (≈ 52.3 mM) and the solubility ([3]; aqueous solution, pH 8.69, aqueous buffer, pH of about 8.69) was about 111000 µg/mL (≈ 309 mM). The solubility ([3]; aqueous solution, pH 9.43, aqueous buffer, pH of about 9.43) was about 58700 µg/mL (≈ 163 mM), the solubility ([3]; aqueous solution, pH 10.26, aqueous buffer, pH of about 10.26) was about 155000 µg/mL (≈ 431 mM) and the “hydrate stability, water loss at low RH” value ([2]; DVS analysis, compared with Form G) was “more stable hydrate”. The “hygroscopicity (in words)” value [2] was “less hygroscopic”, the “hygroscopicity, weight gained” value [2] was 0.6 % w/w and the “DVS reversable total mass change” value [2, 5] was “about 0.6 wt. %”. The physical stability [4] was “physically stable”.
With `N[C@@H](Cc1ccc(O)c(O)c1)C(=O)N[C@@H](Cc1ccc(O)cc1)C(=O)O` [amorphous form, ((S)-2-amino-3-(3,4-dihydroxyphenyl)propanoyl)-L-tyrosine] (H-[Dopa]-Tyr-OH) the “hygroscopicity (in words)” value [2] was “hygroscopic”, the “solid form by XRPD following DVS cycling” value ([2]; XRPD after DVS cycling) was “converted to Pattern N material” and the “DVS reversable total mass change” value [2, 5] was “about 4.19 wt. %”.
